PubChem BioAssay AID743395 (Broad Institute, 2014)

System: HepG2 viability, CellTiter-Glo ATP luminescence, 72 h
Assay: HepG2 cell cytotoxicity, dose response, cytotoxicity control, CellTiter-Glo luminescence, cherry-pick, set 2 (AID 743395)

SMILES | AC35
CCN(CC)CCCNc1nc2ccccc2c2nc(-c3ccncc3)nn12 | 7.23 µM
CCN(CC)CCCNc1nc2ccccc2c2[nH]c3ccc(OC)cc3c12 | 2.39 µM
CCOC(=O)c1c(C)[nH]c(C(=O)N/N=C\c2ccccc2O)c1C | 2.34 µM
Cn1cccc1/C=C1\SC(=Nc2ccccc2)NC1=O | 4.22 µM
Cc1cnc(NC(=O)c2ccc3c(c2)OCCO3)s1 | 4.22 µM
COc1ccc2sc3cccc(NCCN(C)C)c3c(=O)c2c1 | 10.4 µM
COc1ccc(C2C3=C(COC3=O)Oc3cc4c(cc32)OCO4)cc1OC (configuration not stated) | 10.9 µM
CCOC(=O)c1ccc(Nc2sc(C(=O)c3cccc([N+](=O)[O-])c3)c(N)c2C#N)cc1 | 6.7 µM
COc1cccc2c1C(=O)c1c(O)c3c(c(O)c1C2=O)CC(O)(C(=O)CO)CC3OC1CC(N(C)C)C(O)C(C)O1 (configuration not stated) | 0.0659 µM
CN(C)C(=O)C(CCN1CCC(O)(c2ccc(Cl)cc2)CC1)(c1ccccc1)c1ccccc1 | 10.1 µM
C[C@H]1CCC/C=C/[C@@H]2C[C@H](O)C[C@H]2[C@H](O)/C=C/C(=O)O1 | 0.115 µM
CCN(CC)c1ccc(/C=N/NC(=O)c2cnccn2)c(O)c1 | 1.61 µM
CCOc1ccc2[nH]c(C(=O)N/N=C/c3ccc(OC)cc3)cc2c1 | 4.77 µM
CC(=O)NC(c1ccc(C(C)C)cc1)c1ccc2cccnc2c1O (configuration not stated) | 0.861 µM
Cc1ccc(C)c(C2NC(=O)c3ccccc3N2)c1 (configuration not stated) | 5.13 µM
C/C(=N\NC(=O)c1cc(-c2cccs2)nc2ccccc12)c1ccccn1 | 1.63 µM
O=[N+]([O-])c1ccc(/C=C/C2=NN(c3ccccc3)C(c3ccco3)C2)o1 (configuration not stated) | 15.1 µM
CCCC(=O)Nc1ccc2c(c1)nc(CN1CCN(C(=O)OCC)CC1)n2CC | 18.9 µM
O=C1/C(=C\c2ccc(O)cc2)SC(=S)N1Cc1ccccc1 | 17.3 µM
CN(CC1CCCO1)S(=O)(=O)c1ccc(C(=O)Nc2nnc(-c3ccccc3)o2)cc1 (configuration not stated) | 9.86 µM
COc1cc2c(C#CCCO)c(-c3ccsc3)oc(=O)c2cc1OC | 21 µM

SMILES | AC35
O=C(Cc1ccccc1)N1CC(=O)N2[C@H](CO)[C@@H](c3ccc(-c4ccccc4)cc3)[C@@H]2C1 | 18.7 µM
Cc1ccnc(N2C(=O)c3cccc4c([N+](=O)[O-])ccc(c34)C2=O)c1 | 14.9 µM
CC(=O)N1CCc2c(sc(NC(=O)c3ccc4c(c3)OCCO4)c2C#N)C1 | 19.4 µM
Cc1ccccc1S(=O)(=O)N1C[C@@H]2N[C@H](C1)C2c1ccc(-c2cccc(C#N)c2)cc1 (some centres not stated) | 9.94 µM
Cc1cc(C(=O)N/N=C/c2ccc(N(C)C)cc2)c2ccccc2n1 | 8.84 µM
CCCC(=O)NC1=C(Cl)C(=O)c2ccccc2C1=O | 9.76 µM
CCCCNc1c(-c2ccc(SC(C)CC)c(OC)c2)nc2ccc(C)cn12 (configuration not stated) | 13.6 µM
COc1ccc(S(=O)(=O)N(C(=O)C(C)C)c2ccc3oc(=O)sc3c2)cc1 | 17.1 µM
NC(=S)NN=Cc1nccc2c(N)cccc12 | 4.16 µM
CN1c2ccc(-c3ccc(F)cc3)cc2[C@H]2[C@H](CCN2S(=O)(=O)c2cccc(F)c2)[C@@H]1CO | 17.3 µM
COc1ccc(/C(C)=N/NC(=O)c2cccc(S(=O)(=O)N3CCCC3)c2)c(O)c1 | 0.944 µM
Cc1nn(S(=O)(=O)c2ccc(Cl)cc2)c(C)c1Sc1ccc([N+](=O)[O-])cc1 | 21.8 µM
CC(=O)N1CCc2cc(S(=O)(=O)N3c4ccccc4CC3C)ccc21 (configuration not stated) | 10.2 µM
CC(=O)Oc1ccc(N2C(=O)c3cccc4c([N+](=O)[O-])ccc(c34)C2=O)cc1 | 16.7 µM
CC1CCN(C(=O)C2COc3ccccc3O2)CC1 (configuration not stated) | 21.8 µM
COc1ccc(C2=Nn3c(nnc3-c3ccccc3F)SC2)cc1OC1CCCC1 | 11.1 µM
O=C(C[C@@H]1CC[C@@H]2[C@H](COC[C@H](O)CN2Cc2ccc(Oc3ccccc3)cc2)O1)N1CCN(c2ccccc2)CC1 | 7.84 µM
COc1cc(NC(=O)N2CCNC2=O)cc(C(=O)Nc2cccc(C(F)(F)F)c2)c1 | 1.54 µM
O=C(N=Nc1c(O)[nH]c2ccc(Br)cc12)c1ccccc1-n1cccc1 | 13.1 µM
COc1ccc(-c2ccnc(-c3ccc(O)cc3)n2)cc1 | 10.1 µM
Clc1ccc(SCc2cc(N3CCOCC3)nc(-c3ccccn3)n2)cc1 | 9 µM
